Read-outs that look alike come from different tables or passages of the source.
Assays:
E. coli [1] = assay: Membrane potential indicator, red:green fluorescence ratio; format: cell-based; conditions: O/N refrigerator stock vs CCCP-treated E. coli
Text: (§1) Physiologic indicators of active bacteria include indicators of growth, responsiveness to external stimulus, transcription, translation, energy dependent activity, enzyme activity, and an intact permeability barrier. The indicators tested experimentally were grouped according to the following functional categories of physiologic states to which they are responsive, which included indicators of respiratory and metabolic activity, and membrane integrity.
Active bacterial cells maintain a proton gradient across their cell membranes, creating a membrane potential that may be measured using fluorescent dyes. However, the dyes used in this study to evaluate membrane potential are toxic to bacteria and can only be used as an endpoint assay.
DiOC2(3) (Molecular Probes) is a dye that fluoresces in the red channel when it is highly concentrated and self-associates in cells with an intact membrane potential. […] The red:green fluorescence ratio is used to normalize the fluorescence results of cells with differing sizes. Carbonylcyanide-m-chlorophenylhydrazone (CCCP) is a proton ionophore that disrupts the proton gradient and was used to treat E. coli cells in an experimental sample that was compared to an untreated overnight refrigerator stock.

Steno = assay: MADM (BACcel) phenotype/sensitivity by growth analysis, surveillance mini-BAL; format: cell-based, S. maltophilia
Experimental: (§2) Adult MICU patients with identified surrogate were included within 72 hours of intubation and if anticipated to require MV for >48 h. Moribund state or pregnancy were exclusions. Surveillance mini-BAL (Combicath, Plastimed) was performed on Day 1, 3, 5, 7 and 10 of MV. Samples were split and processed for both a) routine respiratory quantitative microbiological culture and sensitivity assays (>48 h result availability) and b) rapid (<8 hour) flowcell/surface-capture assays using the MADM system. Viable microorganisms were identified using growth analysis enhanced by a focused VAP antibody panel (S. aureus, P. aeruginosa, A. baumannii). Untypable organisms were also reported. Sensitivity was assessed using growth analysis. Attending physicians were blinded to MADM system results.
(§3) BAL sample were prepared, removing debris and separating microorganisms from other sample material. Sample microorganisms were introduced into a multichannel fluidic cassette as described elsewhere herein. Bacteria were concentrated and retained on the lower surface of all flowcells using low-voltage electrical field (5 min) Antibody labeling of bacteria in flowcells was used to aid identification.
(§4) The automated digital microscopy system was used to perform darkfield imaging of 10 fields of view every 10 minutes for 180 minutes in each flowcell channel. Initial epifluorescence imaging was also performed for antibody detection. […] Identification consisted of probability scores based on microorganism morphology and growth rates. Antibody labeling identification data was also incorporated. Observed microorganisms were then classified as STAU, PSAE, or non-target. Antibiotic responses were used to aid identification when appropriate. Quantitation was performed by counting identified microorganisms and computing original specimen CFU/mL.

[2] = tested on: Staphylococcus aureus (STAU); assay: MADM system resistance phenotype tests on respiratory specimens; format: cell-based; conditions: for resistance phenotype result (S/R), MADM: ID STAU, MRSA by FOX
Experimental: (ABCC). Concurrent quantitative culture was performed on specimens.
Specimen preparation used a brief procedure to release bacteria, reduce imaging background, and suspend bacteria in a low ionic strength buffer. […] We rejected 10 samples with heavy interfering background when dilution to OD600=0.3 yielded organism counts inadequate for analysis. We rejected 7 samples for other technical deficiencies. The remaining 62 specimens were tested using the MADM system.
(§5) 20 μL samples of prepared specimen were pipetted into independent flowcell channels and a low-voltage electrical field was applied for 5 minutes. The electrical field concentrated bacteria onto a functional surface coating that immobilized the bacteria on the lower flowcell surface. Each flowcell channel received only one type of test reagent solution that contained a selective agent if required (only for channels used to test AB, sulbactam 32 μg/mL).
(§6) The instrument acquired images at 10-minutes intervals for 180 minutes, using 10 fields of view in each flowcell channel through a 20× objective. Imaging used darkfield illumination. Identification variables included response to selective agents (AB with sulbactam), cell morphology, growth morphology, and growth rate.
(§7) Identification algorithms applied to each individual immobilized bacterial cell. The system measured the amount of change in mass over time to compute growth rates. Identification consisted of computing and combining probability scores for morphology, response to selective media, and growth rates to produce a receiver operating characteristic curve (ROC) to derive classification criteria.

STAU = assay: MADM (BACcel) phenotype/sensitivity by growth analysis, surveillance mini-BAL; format: cell-based, S. aureus; conditions: Spec# 008-D7, BACcel ID STAU, 1.11 × 10^6 CFU/ml
Experimental: as §2, §3, §4

[3] = tested on: Staphylococcus aureus (SA); assay: Same-day blood culture MADM drug resistance phenotyping; format: cell-based; conditions: SA in 6 μg/mL FOX, dark-field images over 3 hours (FIG. 10B)
Experimental: The MADM system used a custom microscope and pipetting robot, plus an evaluation system, as described herein. 32-channel disposable cassettes (FIG. 4A) enabled live microorganism immobilization for microscopy and fluid exchanges for different test agents. The microscope scanned 40 image fields in each flowcell channel, each channel having organisms extracted from about 3.5 μL of prepared inoculum.
Simulated blood specimens consisted of isolates spiked into 10 mL each of 29 aliquots of two short-fill CPD blood bank bags to make approximately 5 CFU/mL of bacterial target species, confirmed by quantitative culture. Spiked isolates included 14 Staphylococcus aureus (SA), 3 Pseudomonas aeruginosa (PA), or 12 non-target Gram-negative bacilli species. Dilution of each sample with 30 mL of modified TSB culture medium promoted growth. 20 additional control aliquots contained no spikes. 4-hour incubation at 35° C., followed with brief spin cleanup, ended with pellet resuspension into an electrokinetic buffer to make 1 mL samples for MADM system analysis. 20 μL sample aliquots were then pipetted into 14 cassette flowcells. A 5-minute low-voltage electrokinetic capture was performed to concentrate microorganisms on the lower surface of each flowcell where a capture coating immobilized the bacterial cells. […]

Enteric = assay: MADM (BACcel) phenotype/sensitivity by growth analysis, surveillance mini-BAL; format: cell-based; conditions: Spec# 005-D7, BACcel ID Enteric, 1.26 × 10^5 CFU/ml
Experimental: as §2
BAL sample were prepared, removing debris and separating microorganisms from other sample material. Sample microorganisms were introduced into a multichannel fluidic cassette as described elsewhere herein. […]
The automated digital microscopy system was used to perform darkfield imaging of 10 fields of view every 10 minutes for 180 minutes in each flowcell channel. […] Quantitation was performed by counting identified microorganisms and computing original specimen CFU/mL.

[4] = tested on: Acinetobacter spp. (ABCC); conditions: ABCC-positive specimen (specimen name not given); culture result
Text: (§8) A total of 281 de-identified remnant respiratory specimens were collected from hospital and commercial sources. The specimens included 25 endotracheal aspirates (ETA) of unknown age obtained from a specimen vendor. Also included were 230 mini-bronchoalveolar lavage (mini-BAL) and 26 ETA specimens obtained from Denver Health Medical Center (DHMC). DHMC specimens were 7-21 days old. AST results were available for all mini-BAL specimens but not for ETA. Accompanying reports also included semi-quantitative ID used to select 92 bacteria-positive specimens for analysis using the MADM system. Targets included Pseudomonas aeruginosa, Acinetobacter baumannii complex, and Staphylococcus aureus. Controls used standard culturing methods (Cx).
(§9) These specimens were prepped for introduction into the MADM system. The system performed quantitative ID for Staphylococcus aureus (STAU), Pseudomonas aeruginosa (PSAE), and Acinetobacter spp. (ABCC). Concurrent quantitative culture was performed on specimens. The MADM system performed resistance phenotype tests on STAU-containing specimens for cefoxitin (FOX) MRSA phenotyping and clindamycin (CLI) resistance. The system tested ABCC- and PSAE-containing specimens for amikacin (AN) and imipenem (IMP) resistance.

[5] = tested on: Pseudomonas aeruginosa (PSAE); assay: MADM system resistance phenotype tests on respiratory specimens; format: cell-based; conditions: ID PSAE; also: key: S: susceptible; R: resistant
Experimental: as §9
(§10) Specimen preparation used a brief procedure to release bacteria, reduce imaging background, and suspend bacteria in a low ionic strength buffer. […] The remaining 62 specimens were tested using the MADM system.
as §5, §6, §7

[6] = tested on: Pseudomonas aeruginosa (PSAE); format: cell-based; conditions: ID PSAE, culture result; also: key: S: susceptible; R: resistant
Text: as §8, §9

[7] = tested on: Acinetobacter spp. (ABCC); assay: MADM system resistance phenotype tests on respiratory specimens; format: cell-based, Acinetobacter sp.; conditions: ABCC-positive specimen (specimen name not given); also: key: S: susceptible; R: resistant
Experimental: as §9, §10, §5, §6, §7

K. pneumoniae = assay: Respiratory/metabolic activity indicator labeling (2-NBDG uptake); format: cell-based; conditions: overnight refrigerator stock culture; approximately 1 min of exposure to 1 μM
Text: as §1
(§11) 2-NBDG (Molecular Probes) is a fluorescent derivative (green channel) of D-glucose that is internalized by active bacteria.

E. coli [8] = assay: as above; format: cell-based; conditions: overnight refrigerator stock culture; approximately 1 min of exposure to 1 μM
Text: as §1, §11

H. influenzae = assay: as above; format: cell-based; conditions: overnight refrigerator culture, viability independently verified
Text: as §1, §11

S. maltophilia = assay: as above; format: cell-based; conditions: overnight refrigerator culture; negative control (does not metabolize glucose)
Text: as §1, §11

S. aureus = assay: as above; format: cell-based; conditions: overnight refrigerator culture, viability independently verified
Text: as §1, §11

With `CCN1/C(=C/C=C/c2oc3ccccc3[n+]2CC)Oc2ccccc21.[I-]` [DiOC2(3)] as the compound, how does the “red:green fluorescence ratios” value (E. coli [1]) read?
Its value is “No significant difference”.

What does the source list for `CO[C@@]1(NC(=O)Cc2cccs2)C(=O)N2C(C(=O)O)=C(COC(N)=O)CS[C@@H]21` [FOX, cefoxitin]?
Phenotype, sensitivity (growth in antibiotic) (Steno; Spec# 006-D1, BACcel ID Steno, 7.68 × 10^5 CFU/ml): growth, TZP-; Phenotype, sensitivity (growth in antibiotic) (Steno; Spec# 006-D3, BACcel ID Steno, 1.60 × 10^4 CFU/ml): growth, TZP-; resistance phenotype result (S/R), MADM ([2]; specimen DH 425, Mini-BAL): R; resistance phenotype result (S/R), MADM ([2]; specimen DH 427, Mini-BAL): S; resistance phenotype result (S/R), MADM ([2]; specimen DH 439, Mini-BAL): R; resistance phenotype result (S/R), MADM ([2]; specimen DH 440, BAL): S; resistance phenotype result (S/R), MADM ([2]; specimen DH 457, BAL): S; resistance phenotype result (S/R), MADM ([2]; specimen DH 485, BAL): S; resistance phenotype result (S/R), MADM ([2]; specimen DH 509, BAL): S; resistance phenotype result (S/R), MADM ([2]; specimen DH 514, Mini-BAL): S; resistance phenotype result (S/R), MADM ([2]; specimen DH 543, BAL): S; resistance phenotype result (S/R), MADM ([2]; specimen DH 550, BAL): S; resistance phenotype result (S/R), MADM ([2]; specimen DH 556, Mini-BAL): S; resistance phenotype result (S/R), MADM ([2]; specimen T12, ETA): R; MRSA/MSSA call by FOX in the MADM system ([2]; the one discordant STAU sample): MRSA; Phenotype, sensitivity (STAU): FOX - R; clone growth in drug [3]: growth indicating MRSA phenotype; Phenotype, sensitivity (growth in antibiotic) (Enteric): all growth

`C[C@@H](O)[C@H]1C(=O)N2C(C(=O)O)=C(SCCN=CN)C[C@H]12` [IMP, imipenem] was tested. Which “resistance phenotype result (S/R), Cx” value [4] did it give?
The value was “S”.

What about the “resistance phenotype result (S/R), MADM” value ([5]; specimen DH 430, Mini-BAL) of the same compound?
The value was “S”.

What about the “resistance phenotype result (S/R), MADM” value ([5]; specimen DH 554, BAL) of the same compound?
The value was “S”.

What about the “resistance phenotype result (S/R), MADM” value ([5]; specimen DH 641, Mini-BAL) of the same compound?
The value was “S”.

And the “resistance phenotype result (S/R), Cx” value ([6]; specimen DH 430, Mini-BAL)?
The value was “S”.

And the “resistance phenotype result (S/R), Cx” value ([6]; specimen DH 554, BAL)?
The value was “S”.

What about the “resistance phenotype result (S/R), Cx” value ([6]; specimen DH 641, Mini-BAL) of the same compound?
Its value is “S”.

What about the “resistance phenotype result (S/R), MADM” value [7] of the same compound?
Its value is “S”.

With `O=[N+]([O-])c1ccc(N[C@H]2C(O)O[C@H](CO)[C@@H](O)[C@@H]2O)c2nonc12` (some centres unmarked) [2-NBDG] as the compound, how does the fluorescent labeling (K. pneumoniae) read?
Its fluorescent labeling is “fluorescently labeled”.

And the fluorescent labeling (E. coli [8])?
The fluorescent labeling was “fluorescently labeled”.

What about the fluorescent labeling (H. influenzae) of the same compound?
Its fluorescent labeling is “did not fluoresce”.

And the fluorescent labeling (S. maltophilia)?
Its fluorescent labeling is “did not fluoresce”.

What about the fluorescent labeling (S. aureus) of the same compound?
Its fluorescent labeling is “did not fluoresce”.
